Results from patent US9708336B2, “Metallo-beta-lactamase inhibitors” (priority 2014, dated 2017).
Where two headings read alike, the source gives them in different places.

Legend:
NDM-1 = NDM-1 (Klebsiella pneumoniae, UniProt C7C422); assay: biochemical; type: biochemical
IMP-1 = IMP-1 (Serratia marcescens, UniProt P52699); assay: biochemical; type: biochemical; details: read-out: IMP-1 IC50
VIM-1 = VIM-1 (Pseudomonas aeruginosa (strain ATCC 15692 / DSM 22644 / CIP 104116 / JCM 14847 / LMG 12228 / 1C / PRS 101 / PAO1), UniProt A0A0F7KYQ8); assay: Enzyme activity: determination of IC50, fluorescence assay with CCF2-FA substrate (VIM-1); type: biochemical
[1] = system: Escherichia coli expressing NDM-1 (CLB30016); assay: Antibiotic potentiation activity: synergistic concentration (MITC95) with imipenem, OD600 growth; type: cell-based; details: for Escherichia coli expressing NDM-1 (CLB 30016) MITC95: concentration giving 95% inhibition of bacterial growth
Method in brief: (§1)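 Spectrophotometric growth readings were taken following 22–24 h at 35 °C. Before that, organisms in 1.1× CAMHB were mixed with imipenem, used at 4 μg/ml in assay, and test compound.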

[2] = system: Klebsiella pneumoniae expressing VIM-1 (IHMA599644); assay: as above; type: cell-based; details: for Klebsiella pneumoniae expressing VIM-1 (IHMA 599644) MITC95: concentration giving 95% inhibition of bacterial growth
Method in brief: as §1

[3] = system: Serratia marcescens expressing IMP-1 (CL5741); assay: as above; type: cell-based; details: for Serratia marcescens expressing IMP-1 (CL5741) MITC95: concentration giving 95% inhibition of bacterial growth
Method in brief: as §1

[4] = NDM-1 enzyme, CCF2-FA fluorescence assay, read-out: NDM-1 IC50
[5] = IMP-1 enzyme, CCF2-FA fluorescence assay
[6] = VIM-1 enzyme, CCF2-FA fluorescence assay, read-out: VIM-1 IC50
[7] = Escherichia coli expressing NDM-1 (CLB30016), 95% growth inhibition
[8] = Klebsiella pneumoniae expressing VIM-1 (IHMA599644), 95% growth inhibition
[9] = Serratia marcescens expressing IMP-1 (CL5741), 95% growth inhibition
[10] = NDM-1 enzyme, CCF2-FA substrate, read-out: NDM-1 IC50
[11] = IMP-1 enzyme, CCF2-FA substrate
[12] = VIM-1 enzyme, CCF2-FA substrate, read-out: VIM-1 IC50
[13] = (CLB30016, NDM-1), 95% growth inhibition
[14] = Klebsiella pneumoniae IHMA599644 (VIM-1), 95% growth inhibition
[15] = Serratia marcescens CL5741 (IMP-1), 95% growth inhibition
[16] = fluorescence assay with CCF2-FA substrate, read-out: NDM-1 IC50
[17] = fluorescence assay with CCF2-FA substrate
[18] = fluorescence assay with CCF2-FA substrate, read-out: VIM-1 IC50
[19] = CLB30016 (NDM-1), 95% inhibition of bacterial growth
[20] = IHMA599644 (VIM-1), 95% inhibition of bacterial growth
[21] = CL5741 (IMP-1), 95% inhibition of bacterial growth
[22] = VIM-1 IC50, fluorescence assay with CCF2-FA substrate

IMP-1, sequence (P52699 whole entry, looked up): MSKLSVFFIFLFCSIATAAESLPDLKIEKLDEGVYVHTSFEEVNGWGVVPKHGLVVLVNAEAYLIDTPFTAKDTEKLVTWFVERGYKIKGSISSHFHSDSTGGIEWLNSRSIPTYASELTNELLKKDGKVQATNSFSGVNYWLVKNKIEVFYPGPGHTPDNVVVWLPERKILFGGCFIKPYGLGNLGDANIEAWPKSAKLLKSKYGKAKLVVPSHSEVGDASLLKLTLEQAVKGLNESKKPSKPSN
NDM-1, sequence (C7C422 whole entry, looked up, species assumed): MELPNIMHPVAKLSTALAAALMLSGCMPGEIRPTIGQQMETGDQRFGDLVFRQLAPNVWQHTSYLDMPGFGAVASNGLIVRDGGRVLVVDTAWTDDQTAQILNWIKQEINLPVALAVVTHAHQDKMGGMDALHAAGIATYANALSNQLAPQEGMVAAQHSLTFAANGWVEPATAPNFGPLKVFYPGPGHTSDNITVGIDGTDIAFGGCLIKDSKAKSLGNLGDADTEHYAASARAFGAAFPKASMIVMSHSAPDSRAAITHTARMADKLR

Row | SMILES | IC50 (NDM-1; [4]) [nM] | IC50 (IMP-1; [5]) [nM] | IC50 (VIM-1; [6]) [nM] | Escherichia coli MITC95 [1, 7] [µM] | Klebsiella pneumoniae MITC95 [2, 8] [µM] | Serratia marcescens MITC95 [3, 9] [µM] | IC50 (IMP-1; [11]) [nM] | Escherichia coli MITC95 [1, 13] [µM] | Klebsiella pneumoniae MITC95 [2, 14] [µM] | Serratia marcescens MITC95 [3, 15] [µM] | IC50 (NDM-1; [16]) [nM] | IC50 (IMP-1; [17]) [nM] | further results
1 | NS(=O)(=O)c1cccc(-c2ccc(CN3CCOCC3)cc2)c1-c1nnn[nH]1 [Example 341, 4′-(morpholin-4-ylmethyl)-2-(1H-tetrazol-5-yl)biphenyl-3-sulfonamide] | 2.94 | 22.1 | 786 | 0.7813 | >200 | 1.172 |  |  |  |  |  |  | 
2 | Cc1nc(N)ccc1Cc1cccc(S(N)(=O)=O)c1-c1nn[nH]n1 [Example 572, 3-((6-amino-2-methylpyridin-3-yl)methyl)-2-(2H-tetrazol-5-yl)benzenesulfonamide] |  |  |  |  |  |  | 701 | 0.5859 | 6.25 | 25 |  |  | IC50 (NDM-1; [10]): 14.7 nM; IC50 (VIM-1; [12]): 8.98 nM
3 | N=C(N)NC1CCN(c2ccc(C(F)(F)F)c(S(N)(=O)=O)c2-c2nnn[nH]2)CC1 [Example 824, 1-[1-[3-sulfamoyl-2-(1H-tetrazol-5-yl)-4-(trifluoromethyl)phenyl]-4-piperidyl]guanidine] |  |  |  |  |  |  |  |  |  |  | 53.1 | 59.2 | IC50 (VIM-1; [18]): 0.702 nM; Escherichia coli MITC95 [1, 19]: 1.563 µM; Klebsiella pneumoniae MITC95 [2, 20]: 0.7813 µM; Serratia marcescens MITC95 [3, 21]: 0.7813 µM
4 | NS(=O)(=O)c1cccc(-c2ccc(-n3cccn3)nc2)c1-c1nnn[nH]1 [Example 117, 3-(6-(1H-pyrazol-1-yl)pyridin-3-yl)-2-(1H-tetrazol-5-yl)benzenesulfonamide] |  |  |  |  |  |  |  |  |  |  | 5.18 | 134 | IC50 (VIM-1; [18]): 135 nM; Escherichia coli expressing NDM-1 (CLB 30016) MITC95 [1]: 1.172 µM; Klebsiella pneumoniae expressing VIM-1 (IHMA 599644) MITC95 [2]: 100 µM; Serratia marcescens expressing IMP-1 (CL5741) MITC95 [3]: 6.25 µM
5 | NS(=O)(=O)c1c(C(F)(F)F)ccc([C@H]2CC[C@@H](C3=NCCN3)CC2)c1-c1nnn[nH]1 [Example 505, 3-(cis 4-(4,5-dihydro-1H-imidazol-2-yl)cyclohexyl)-2-(1H-tetrazol-5-yl)-6-(trifluoromethyl)benzenesulfonamide] |  |  |  |  |  |  | 22.2 | 6.25 | 12.5 | 6.25 |  |  | IC50 (NDM-1): 9.54 nM; IC50 (VIM-1; VIM-1 IC50, VIM-1 enzyme, CCF2-FA substrate): 0.937 nM
6 | NS(=O)(=O)c1cccc(-c2cccc(CO)c2)c1-c1nnn[nH]1 [Example 119, 3′-(hydroxymethyl)-2-(1H-tetrazol-5-yl)-[1,1′-biphenyl]-3-sulfonamide] |  |  |  |  |  |  |  |  |  |  | 16.2 | 548 | IC50 (VIM-1; [22]): 261 nM; Escherichia coli expressing NDM-1 (CLB 30016) MITC95 [1]: 1.563 µM; Klebsiella pneumoniae expressing VIM-1 (IHMA 599644) MITC95 [2]: 50 µM; Serratia marcescens expressing IMP-1 (CL5741) MITC95 [3]: 18.75 µM
7 | N[C@@H]1CCCN(c2ccc(-c3ccc(C(F)(F)F)c(S(N)(=O)=O)c3-c3nnn[nH]3)cc2)C1 [Example 727, 4′-[(3R)-3-aminopiperidin-1-yl]-2-(1H-tetrazol-5-yl)-4-(trifluoromethyl)biphenyl-3-sulfonamide] |  |  |  |  |  |  | 1.97 | 3.125 | 25 | 3.125 |  |  | IC50 (NDM-1; [10]): 2.13 nM; IC50 (VIM-1; [12]): 0.914 nM
8 | N#Cc1nc2c(-c3ccc(C(F)(F)F)c(S(N)(=O)=O)c3-c3nnn[nH]3)cccc2s1 [Example 483, 3-(2-Cyanobenzo[d]thiazol-4-yl)-2-(1H-tetrazol-5-yl)-6-(trifluoromethyl)benzenesulfonamide] | 0.755 | 2.12 | 0.216 | 6.25 | 12.5 | 25 |  |  |  |  |  |  | 
9 | Cc1ccc(-c2ccc(Br)c(S(N)(=O)=O)c2-c2nn[nH]n2)cc1 [Example 267, 4-bromo-4′-methyl-2-(2H-tetrazol-5-yl)-[1,1′-biphenyl]-3-sulfonamide] | 1.81 | 2 | 2.95 | 0.7383 | 6.25 | 0.2552 |  |  |  |  |  |  | 
10 | Nc1cccn2c(-c3cccc(S(N)(=O)=O)c3-c3nnn[nH]3)cnc12 [Example 418, 3-(8-aminoimidazo[1,2-a]pyridin-3-yl)-2-(1H-tetrazol-5-yl)benzenesulfonamide] | 1.18 | 118 | 13 | 0.3906 | 6.25 | 6.25 |  |  |  |  |  |  | 
11 | NS(=O)(=O)c1c(C(F)(F)F)ccc(N2CCC3(CCNCC3)C2)c1-c1nnn[nH]1 [Example 771, 3-(2,8-diazaspiro[4.5]dec-2-yl)-2-(1H-tetrazol-5-yl)-6-(trifluoromethyl) benzenesulfonamide] |  |  |  |  |  |  |  |  |  |  | 30.7 | 227 | IC50 (VIM-1; [18]): 22.9 nM; Escherichia coli MITC95 [1, 19]: 25 µM; Klebsiella pneumoniae MITC95 [2, 20]: 50 µM; Serratia marcescens MITC95 [3, 21]: 50 µM
12 | NS(=O)(=O)c1c(C(F)(F)F)ccc(N2C[C@H](O)C[C@@H](O)C2)c1-c1nnn[nH]1 [Example 666, 3-[(3R,5R)-3,5-dihydroxypiperidin-1-yl]-2-(1H-tetrazol-5-yl)-6-(trifluoromethyl)benzenesulfonamide] |  |  |  |  |  |  | 150 | 2.344 | 12.5 | 4.688 |  |  | IC50 (NDM-1; [10]): 57 nM; IC50 (VIM-1; [12]): 14.7 nM
13 | Cc1ccccc1Cc1cccc(S(N)(=O)=O)c1-c1nnn[nH]1 [Example 155, 3-(2-methylbenzyl)-2-(1H-tetrazol-5-yl)benzenesulfonamide] |  |  |  |  |  |  |  |  |  |  | 3 | 92.7 | IC50 (VIM-1; [18]): 16.2 nM; Escherichia coli expressing NDM-1 (CLB 30016) MITC95 [1]: 3.125 µM; Klebsiella pneumoniae expressing VIM-1 (IHMA 599644) MITC95 [2]: 75 µM; Serratia marcescens expressing IMP-1 (CL5741) MITC95 [3]: 2.344 µM
14 | NS(=O)(=O)c1c(C(F)(F)F)ccc([C@H]2CC[C@H](NC3CCCNCC3)CC2)c1-c1nnn[nH]1 (stereo partly drawn) [Example 695, 3-[4-(azepan-4-ylamino)cyclohexyl]-2-(1H-tetrazol-5-yl)-6-(trifluoromethyl)benzene sulfonamide] |  |  |  |  |  |  | 42.3 | 0.7813 | 6.25 | 3.125 |  |  | IC50 (NDM-1; [10]): 13.6 nM; IC50 (VIM-1; [12]): 13.2 nM
15 | N=C(N)NC1Cc2ccc(-c3ccc(C(F)(F)F)c(S(N)(=O)=O)c3-c3nn[nH]n3)cc2C1 (stereo not drawn) [Example 447, 3-(2-guanidino-2,3-dihydro-1H-inden-5-yl)-2-(2H-tetrazol-5-yl)-6-(trifluoromethyl)benzenesulfonamide] | 7.13 | 4.26 | 0.171 | 1.086 | 0.8906 | 0.125 |  |  |  |  |  |  | 
16 | Nc1ncnc2cc(-c3ccc(C(F)(F)F)c(S(N)(=O)=O)c3-c3nnn[nH]3)ccc12 [Example 749, 3-(4-aminoquinazolin-7-yl)-2-(1H-tetrazol-5-yl)-6-(trifluoromethyl)benzenesulfon-amide] |  |  |  |  |  |  |  |  |  |  | 2.35 | 4.12 | IC50 (VIM-1; [22]): 0.262 nM; Escherichia coli MITC95 [1, 19]: 3.125 µM; Klebsiella pneumoniae MITC95 [2, 20]: 6.25 µM; Serratia marcescens MITC95 [3, 21]: 12.5 µM
